Species: Rattus norvegicus
Assay: Open TG-GATES - Regimen: Daily Repeat
Format: toxicity, organism-based, Sprague-Dawley
Set-up: regimen Daily Repeat, gender Male, age 6 weeks
Conditions: in vivo, iv, 1 mg/kg, route intravenous injection, dose level High; for APTT / Bas / Eos / Fbg / Hb / Ht / Lym / MCH / MCHC / MCV / Mono / Neu / PT / Plat / RBC / Ret / WBC: tissue Blood; for KIDNEY_L / KIDNEY_R / KIDNEY_TOTAL: tissue Kidney; for LIVER: tissue Liver; for A/G / ALP / ALT / AST / BUN / CRE / Ca / Cl / DBIL / GLC / IP / K / LDH / Na / PL / RALB / TBIL / TC / TG / TP / gamma-GTP: tissue Plasma

## C[C@@H]1[C@H](O)[C@@H](C)/C=C/C=C/C=C/C=C/C=C/C=C/C=C/[C@H](O[C@@H]2O[C@H](C)[C@@H](O)[C@H](N)[C@@H]2O)C[C@@H]2O[C@](O)(C[C@@H](O)C[C@@H](O)[C@H](O)CC[C@@H](O)C[C@@H](O)CC(=O)O[C@H]1C)C[C@H](O)[C@H]2C(=O)O [AMPHOTERICIN B]
72 h, time 3 day
  TERMINAL_BW: 235.4 g
  APTT: 15.8 s
  Bas: 0%
  Eos: 0.8%
  Fbg: 303.4 mg/dL
  Hb: 13.7 g/dL
  Ht: 39.2%
  Lym: 80.8%
  MCH: 21.3 pg
  MCHC: 34.8%
  MCV: 61.1 fL
  Mono: 2.2%
  Neu: 15.2%
  PT: 12.3 s
  Plat: 136.2 x10_4/uL
  RBC: 643 x10_4/ul
  Ret: 4.2%
  WBC: 106.4 x10_2/uL
  KIDNEY_L: 1 g
  KIDNEY_R: 1 g
  KIDNEY_TOTAL: 2 g
  LIVER: 10.7 g
  A/G: 0.8
  ALP: 1621.8 IU/L
  ALT: 32 IU/L
  AST: 61.2 IU/L
  BUN: 22.6 mg/dL
  CRE: 0.2 mg/dL
  Ca: 10.9 mg/dL
  Cl: 106.4 meq/L
  DBIL: 0.018 mg/dL
  GLC: 174.6 mg/dL
  IP: 7.1 mg/dL
  K: 4.1 meq/L
  LDH: 51.8 IU/L
  Na: 143 meq/L
  PL: 147 mg/dL
  RALB: 2.6 g/dL
  TBIL: 0.05 mg/dL
  TC: 85 mg/dL
  TG: 94.8 mg/dL
  TP: 5.9 g/dL
  gamma-GTP: 1.8 IU/L
[…], time 7 day
  TERMINAL_BW: 266.4 g
  APTT: 17.2 s
  Bas: 0%
  Eos: 1%
  Fbg: 287 mg/dL
  Hb: 13.6 g/dL
  Ht: 39%
  Lym: 78%
  MCH: 20.5 pg
  MCHC: 34.9%
  MCV: 58.6 fL
  Mono: 2.2%
  Neu: 18.6%
  PT: 11.9 s
  Plat: 141.2 x10_4/uL
  RBC: 665.8 x10_4/ul
  Ret: 4.7%
  WBC: 126.3 x10_2/uL
  KIDNEY_L: 1.2 g
  KIDNEY_R: 1.1 g
  KIDNEY_TOTAL: 2.3 g
  LIVER: 12.5 g
  A/G: 0.8
  ALP: 1417.8 IU/L
  ALT: 29.8 IU/L
  AST: 57.2 IU/L
  BUN: 22.4 mg/dL
  CRE: 0.2 mg/dL
  Ca: 11.2 mg/dL
  Cl: 105.2 meq/L
  DBIL: 0.018 mg/dL
  GLC: 177.8 mg/dL
  IP: 6.7 mg/dL
  K: 4.4 meq/L
  LDH: 57.4 IU/L
  Na: 143.2 meq/L
  PL: 145.6 mg/dL
  RALB: 2.6 g/dL
  TBIL: 0.044 mg/dL
  TC: 77 mg/dL
  TG: 138.6 mg/dL
  TP: 6 g/dL
  gamma-GTP: 1.2 IU/L
[…], time 14 day
  TERMINAL_BW: 304.7 g
  APTT: 16.6 s
  Bas: 0.4%
  Eos: 0.8%
  Fbg: 281.6 mg/dL
  Hb: 14.4 g/dL
  Ht: 40.7%
  Lym: 82.8%
  MCH: 20.3 pg
  MCHC: 35.4%
  MCV: 57.2 fL
  Mono: 1.6%
  Neu: 14.2%
  PT: 12.5 s
  Plat: 122.8 x10_4/uL
  RBC: 711.2 x10_4/ul
  Ret: 4.1%
  WBC: 116.3 x10_2/uL
  KIDNEY_L: 1.2 g
  KIDNEY_R: 1.2 g
  KIDNEY_TOTAL: 2.5 g
  LIVER: 12.9 g
  A/G: 0.8
  ALP: 1437.6 IU/L
  ALT: 31.6 IU/L
  AST: 63 IU/L
  BUN: 27.2 mg/dL
  CRE: 0.2 mg/dL
  Ca: 10.8 mg/dL
  Cl: 105 meq/L
  DBIL: 0.016 mg/dL
  GLC: 183.2 mg/dL
  IP: 6.7 mg/dL
  K: 4.6 meq/L
  LDH: 54 IU/L
  Na: 142.8 meq/L
  PL: 149.8 mg/dL
  RALB: 2.6 g/dL
  TBIL: 0.048 mg/dL
  TC: 75.6 mg/dL
  TG: 132.8 mg/dL
  TP: 6 g/dL
  gamma-GTP: 1 IU/L
[…], time 28 day
  TERMINAL_BW: 371.1 g
  APTT: 19.3 s
  Bas: 1%
  Eos: 1%
  Fbg: 322.5 mg/dL
  Hb: 15.1 g/dL
  Ht: 42.9%
  Lym: 80.8%
  MCH: 18.9 pg
  MCHC: 35.2%
  MCV: 53.8 fL
  Mono: 2.2%
  Neu: 14.5%
  PT: 12.9 s
  Plat: 127.8 x10_4/uL
  RBC: 798.8 x10_4/ul
  Ret: 2.8%
  WBC: 135.7 x10_2/uL
  KIDNEY_L: 1.4 g
  KIDNEY_R: 1.3 g
  KIDNEY_TOTAL: 2.7 g
  LIVER: 14.4 g
  A/G: 0.6
  ALP: 1068.2 IU/L
  ALT: 30.2 IU/L
  AST: 60.2 IU/L
  BUN: 26.8 mg/dL
  CRE: 0.2 mg/dL
  Ca: 10.9 mg/dL
  Cl: 106 meq/L
  DBIL: 0.0175 mg/dL
  GLC: 178 mg/dL
  IP: 6.1 mg/dL
  K: 4 meq/L
  LDH: 52.8 IU/L
  Na: 145.2 meq/L
  PL: 128.8 mg/dL
  RALB: 2.6 g/dL
  TBIL: 0.06 mg/dL
  TC: 63.2 mg/dL
  TG: 105 mg/dL
  TP: 6.4 g/dL
  gamma-GTP: 1.2 IU/L

From ChEMBL document CHEMBL3885861, “Open TG-GATES”
